Drawing on patent US11401286B2 (Tetra Discovery Partners, LLC, priority 2012, dated 2022), this text covers IC50 for 38 compounds.

Usually IC50 stands for the concentration that inhibits the measured activity by half.

Counter-ions that a name gives are not always drawn.

The target of the first experiment is PDE4D7 (Homo sapiens (Human), UniProt Q08499). As to conditions: read-out: PDE4D7 IC50.
Chain of PDE4D7 (Q08499 other isoform, or with tags, fused parts or gaps): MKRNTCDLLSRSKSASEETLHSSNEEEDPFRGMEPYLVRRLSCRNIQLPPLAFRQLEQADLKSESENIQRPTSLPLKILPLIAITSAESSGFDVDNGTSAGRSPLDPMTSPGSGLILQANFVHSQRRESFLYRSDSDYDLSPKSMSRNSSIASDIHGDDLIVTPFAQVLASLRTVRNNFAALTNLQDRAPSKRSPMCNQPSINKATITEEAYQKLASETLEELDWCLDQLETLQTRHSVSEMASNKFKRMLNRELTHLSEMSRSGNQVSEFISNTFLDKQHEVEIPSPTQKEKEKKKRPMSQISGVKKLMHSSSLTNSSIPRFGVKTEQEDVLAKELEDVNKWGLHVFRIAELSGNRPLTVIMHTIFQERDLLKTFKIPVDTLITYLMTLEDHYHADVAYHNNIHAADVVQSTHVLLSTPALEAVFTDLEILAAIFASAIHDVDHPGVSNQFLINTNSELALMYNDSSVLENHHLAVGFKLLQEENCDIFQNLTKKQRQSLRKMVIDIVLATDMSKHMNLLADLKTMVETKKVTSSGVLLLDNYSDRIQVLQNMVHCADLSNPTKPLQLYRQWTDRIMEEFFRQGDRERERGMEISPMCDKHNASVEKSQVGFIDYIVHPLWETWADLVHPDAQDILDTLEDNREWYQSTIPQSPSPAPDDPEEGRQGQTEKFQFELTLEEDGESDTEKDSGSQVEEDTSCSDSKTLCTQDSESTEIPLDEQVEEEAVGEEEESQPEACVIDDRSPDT
Description: Here, a kinetic assay of cAMP hydrolysis by purified PDE4 was used, in which PDE4 activity was measured by coupling the formation of the PDE4 reaction product, 5′-adenosine monophosphate, to the oxidation of reduced nicotinamide adenine dinucleotide (NADH) by the use of three coupling enzymes (myokinase, pyruvate kinase and lactate dehydrogenase), which allows fluorescent determination of reaction rates. Assays are performed in 96-well plates in a total volume of 200 μl/well. Compounds are dissolved in dimethylsulfoxide (DMSO) and added to plates in a volume of 10 μl followed by addition of 165 μl of assay mix. Plates are pre-incubated at 25° C. for 15 min and the reactions are initiated by the addition of 25 μl of cAMP followed by thorough mixing. […] Initial rates (slopes) are determined from linear portions of the progress curves. Final concentrations of assay components are as follows: 50 mM Tris, pH 8, 10 mM MgCl2, 50 mM KCl, 2% DMSO, 5 mM tris(2-carboxyethyl)phosphine (TCEP), 0.4 mM phosphenolpyruvate (PEP), 0.01 mM NADH, 0.04 mM adenosine triphosphate (ATP), 0.004 mM cAMP, 7.5 units myokinase from yeast, 1.6 units pyruvate kinase, 2 units lactate dehydrogenase, and either 0.5 nM human PDE4D7 or 10 nM human PDE4B1. All data are percent normalized relative to controls and are presented as percent inhibition. […] Human PDE4D7 contained a mutation of serine 54 to aspartic acid to mimic activation by cAMP-dependent protein kinase A (PKA).
PDE4D7*=PDE4D7 containing a UCR1 activating mutation S54D.
As for `NC(=O)Cc1ccc(S(=O)(=O)c2cc(-c3cccc(Cl)c3)nc3c2CCC3)cc1` [Example 267, 2-(4-((2-(3-chlorophenyl)-6,7-dihydro-5H-cyclopenta[b]pyridin-4-yl)sulfonyl)phenyl)acetamide], the IC50 is > 1000 nM.
For `C[C@@H]1CN(c2cc(Nc3ccc(CC(N)=O)cc3)c3c(n2)CCC3)CCN1` [Example 255, (R)-2-(4-((2-(3-Methylpiperazin-1-yl)-6,7-dihydro-5H-cyclopenta[b]pyridin-4-yl)amino)phenyl)acetamide hydrochloride], the IC50 was > 1000 nM.

Still in this experiment, the particulars now being: read-out: PDE4D7 IC50; PDE4D7 without asterisk.
For the compound `OB1OCc2cc(Nc3nc(-c4ccc(Cl)cc4)nc4c3CCC4)ccc21` [Example 295, 2-(4-Chlorophenyl)-N-(1-hydroxy-3H-2,1-benzoxaborol-5-yl)-6,7-dihydro-5H-cyclopenta[d]pyrimidin-4-amine], the IC50 is > 1000 nM.
On the same count and under the same terms, the figure for `CCc1nc(Nc2ccc(CC(N)=O)cc2)cc(-c2cccc(Cl)c2)n1` [Example 265, 2-(4-((6-(3-chlorophenyl)-2-ethylpyrimidin-4-yl)amino)phenyl)acetamide] is < 1000 nM; for `NC(=O)Cc1ccc(Nc2cc(N3CCCC3)nc3c2CCC3)cc1` [Example 236, 2-(4-((2-(Pyrrolidin-1-yl)-6,7-dihydro-5H-cyclopenta[b]pyridin-4-yl)amino)phenyl)acetamide hydrochloride] it is > 1000 nM; for `O=C(O)CCCc1ccc(Nc2cc(-c3cccc(Cl)c3)nc3c2CCC3)cc1` [Example 8, 4-[4-[[2-(3-Chlorophenyl)-6,7-dihydro-5H-cyclopenta[b]pyridin-4-yl]amino]phenyl]butanoic acid] it is > 1000 nM.
Same read-out and setting: the figure for `COC(=O)Cc1ccc(Nc2nc(Cl)nc(-c3ccc(Cl)s3)n2)cc1` [Example 35, methyl 2-(4-((4-chloro-6-(5-chlorothiophen-2-yl)-1,3,5-triazin-2-yl)amino)phenyl)acetate] is > 1000 nM; for `CC(C)c1nc(Nc2ccc(F)cc2)nc(-c2ccc(Cl)s2)n1` [Example 26, 4-(5-chlorothiophen-2-yl)-N-(4-fluorophenyl)-6-isopropyl-1,3,5-triazin-2-amine] it is > 1000 nM.
For the compound `CCc1cc(Cc2ccc(CC(N)=O)cc2)nc(C2CCCC2)n1` [Example 226, 2-(4-((2-Cyclopentyl-6-ethylpyrimidin-4-yl)methyl)phenyl)acetamide], the IC50 was < 1000 nM.
Still for that read-out and setting: the figure for `Fc1ccc(Nc2cc(-c3cccc(Cl)c3)nc3c2CCC3)cc1` [Example 290, 2-(3-Chlorophenyl)-N-(4-fluorophenyl)-6,7-dihydro-5H-cyclopenta[b]pyridin-4-amine hydrochloride] is > 1000 nM; for `OCCc1ccc(Nc2nc(OC3CCCC3)nc3c2CCC3)cc1` [Example 233, 2 2-(4-((2-(Cyclopentyloxy)-6,7-dihydro-5H-cyclopenta[d]pyrimidin-4-yl)amino)phenyl)ethanol] it is > 1000 nM.
Same read-out and setting: to `O=S1(=O)CCCc2nc(C3CCCC3)nc(Cc3ccc(CCO)cc3)c21` [Example 288, 2-Cyclopentyl-4-(4-(2-hydroxyethyl)benzyl)-7,8-dihydro-6H-thiopyrano[3,2-d]pyrimidine 5,5-dioxide] belongs < 1000 nM; to `CCc1cc(Nc2ccc(CC(N)=O)cc2)nc(C2CCCC2)n1` [Example 221, 2-(4-((2-Cyclopentyl-6-ethylpyrimidin-4-yl)amino)phenyl)acetamide], < 1000 nM; to `Clc1cccc(-c2cc(Nc3ccc(Cc4ncco4)cc3)c3c(n2)CCC3)c1` [Example 114, 2-(3-Chlorophenyl)-N-(4-(oxazol-2-ylmethyl)phenyl)-6,7-dihydro-5H-cyclopenta[b]pyridin-4-amine hydrochloride], > 1000 nM.
On to `NC(=O)Cc1ccc(Nc2nc(-c3cccc(Cl)c3)nc3c2CCC3)cc1` [Example 21, 2-[4-[[2-(3-chlorophenyl)-6,7-dihydro-5H-cyclopenta[d]pyrimidin-4-yl]amino]phenyl]acetamide], for which the IC50 was > 1000 nM.
On to `CCc1cc(Nc2ccc(CCO)cc2)nc(C2CCCC2)n1` [Example 222, 2-(4-((2-Cyclopentyl-6-ethylpyrimidin-4-yl)amino)phenyl)ethanol], for which the IC50 was < 1000 nM.
On the same count and under the same terms, the figure for `NC(=O)Cc1ccc(Nc2cc(-c3cccc(Cl)c3)nc(C3CC3)c2)cc1` [Example 139, 2-(4-((2-(3-Chlorophenyl)-6-cyclopropylpyridin-4-yl)amino)phenyl)acetamide hydrochloride] is < 1000 nM; for `CC(C)Oc1cc(Nc2ccc(CC(N)=O)cc2)c2c(n1)CCC2` [Example 261, 2-(4-((2-Isopropoxy-6,7-dihydro-5H-cyclopenta[b]pyridin-4-yl)amino)phenyl)acetamide hydrochloride] it is > 1000 nM.
Consider `NC(=O)C(CO)Cc1ccc(Nc2nc(-c3cccc(Cl)c3)nc3c2CCC3)cc1` (centres unmarked) [Example 168, 2-(4-((2-(3-Chlorophenyl)-6,7-dihydro-5H-cyclopenta[d]pyrimidin-4-yl)amino)benzyl)-3-hydroxypropanamide], for which the IC50 is > 1000 nM.
The same measure, in the same setting: to `Cc1cc(Nc2nc(-c3cccc(Cl)c3)nc3c2CCC3)ccc1CC#N` [Example 177, 2-(4-((2-(3-Chlorophenyl)-6,7-dihydro-5H-cyclopenta[d]pyrimidin-4-yl)amino)-2-methylphenyl)acetonitrile] belongs > 1000 nM.
Same read-out and setting: to `NC(=O)Cc1ccc(Cc2cc(C3CC3)nc(-c3cccc(Cl)c3)n2)cc1` [Example 209, 2-(4-((2-(3-chlorophenyl)-6-cyclopropylpyrimidin-4-yl)methyl)phenyl)acetamide] belongs > 1000 nM.
For `OCCc1ccc(Nc2cc(-c3ccc(F)c(Cl)c3)nc3c2CCC3)cc1` [Example 151, 2-(4-((2-(3-Chloro-4-fluorophenyl)-6,7-dihydro-5H-cyclopenta[b]pyridin-4-yl)amino)phenyl)ethanol hydrochloride], the IC50 was > 1000 nM.
Turning to `CCc1cc(Nc2ccc(CC(N)=O)cc2)nc(-c2cccc(Cl)c2)n1` [Example 171, 2-(4-((2-(3-Chlorophenyl)-6-ethylpyrimidin-4-yl)amino)phenyl)acetamide], the IC50 was < 1000 nM.
On to `FC(F)(F)Cc1ccc(Nc2cc(-c3cccc(Cl)c3)nc3c2CCC3)cc1` [Example 110, 2-(3-Chlorophenyl)-N-(4-(2,2,2-trifluoroethyl)phenyl)-6,7-dihydro-5H-cyclopenta[b]pyridin-4-amine hydrochloride], for which the IC50 was > 1000 nM.
The same measure, in the same setting: to `OCCc1ccc(Nc2cc(OC3CCCC3)nc3c2CCC3)cc1` [Example 257, 2-(4-((2-(Cyclopentyloxy)-6,7-dihydro-5H-cyclopenta[b]pyridin-4-yl)amino)phenyl)ethanol hydrochloride] belongs > 1000 nM; to `CCc1nc(Nc2ccc(C(=O)O)cc2)nc(-c2ccc(Cl)s2)n1` [Example 30, 4-(4-(5-chlorothiophen-2-yl)-6-ethyl-1,3,5-triazin-2-ylamino)benzoic acid], < 1000 nM.
On the same count and under the same terms, to `CC(Oc1ccc(Nc2cc(-c3cccc(Cl)c3)nc3c2CCC3)cc1)C(N)=O` (centres unmarked) [Example 116, 2-(4-((2-(3-Chlorophenyl)-6,7-dihydro-5H-cyclopenta[b]pyridin-4-yl)amino)phenoxy)propanamide hydrochloride] belongs > 1000 nM; to `CCc1c(C)nc(-c2ccc(Cl)s2)nc1Nc1ccc(Cc2noc(=O)[nH]2)cc1` [Example 302, 3-[[4-[[2-(5-Chloro-2-thienyl)-5-ethyl-6-methyl-pyrimidin-4-yl]amino]phenyl]methyl]-4H-1,2,4-oxadiazol-5-one], > 1000 nM.
On the same count and under the same terms, to `O=C(O)c1ccc(Nc2nc(-c3cccc(Cl)c3)nc(C3CC3)n2)cc1` [Example 41, 4-((4-(3-chlorophenyl)-6-cyclopropyl-1,3,5-triazin-2-yl)amino)benzoic acid] belongs < 1000 nM.
Regarding `CCc1nc(Nc2ccc(CCO)cc2)cc(-c2cccc(Cl)c2)n1` [Example 264, 2-(4-((6-(3-Chlorophenyl)-2-ethylpyrimidin-4-yl)amino)phenyl)ethanol], the IC50 was < 1000 nM.
Same read-out and setting: the figure for `NC(=O)Cc1ccc(Nc2cc(-c3ncco3)nc3c2CCC3)cc1` [Example 242, 2-(4-((2-(Oxazol-2-yl)-6,7-dihydro-5H-cyclopenta[b]pyridin-4-yl)amino)phenyl)acetamide] is > 1000 nM.
On the same count and under the same terms, the figure for `Cc1ccc(C(=O)c2nc(-c3cccc(Cl)c3)nc3c2CCC3)cc1` [Example 70, (2-(3-Chlorophenyl)-6,7-dihydro-5H-cyclopenta[d]pyrimidin-4-yl)(p-tolyl)methanone] is > 1000 nM; for `CCc1cc(Nc2ccc(Cn3cc(Cl)cn3)cc2)nc(-c2cccc(Cl)c2)n1` [Example 188, N-(4-((4-Chloro-1H-pyrazol-1-yl)methyl)phenyl)-2-(3-chlorophenyl)-6-ethylpyrimidin-4-amine] it is > 1000 nM.
The same measure, in the same setting: the figure for `NC(=O)Cc1ccc(Nc2cc(-c3cccc(Cl)c3)[n+]([O-])c3c2CCC3)cc1` [Example 103, 4-((4-(2-Amino-2-oxoethyl)phenyl)amino)-2-(3-chlorophenyl)-6,7-dihydro-5H-cyclopenta[b]pyridine 1-oxide] is > 1000 nM; for `O=C(O)Cc1ccc(Nc2cc(C3CCCC3)nc(C(F)(F)F)c2)cc1` [Example 161, 2-(4-((2-Cyclopentyl-6-(trifluoromethyl)pyridin-4-yl)amino)phenyl)acetic acid] it is > 1000 nM.
Take `O=S1(=O)CCCc2nc(-c3cccc(Cl)c3)nc(Nc3ccc(Cc4nn[nH]n4)cc3)c21` [Example 316, 2-(3-Chlorophenyl)-5,5-dioxo-N-[4-(2H-tetrazol-5-ylmethyl)phenyl]-7,8-dihydro-6H-thiopyrano[3,2-d]pyrimidin-4-amine]: the concentration for half-maximal inhibition (IC50) was < 1000 nM.
On the same count and under the same terms, the figure for `NC(=O)Cc1ccc(Nc2nc(-c3cccc(Cl)c3)nc3c2SCC3)cc1` [Example 280, 2-(4-((2-(3-chlorophenyl)-6,7-dihydrothieno[3,2-d]pyrimidin-4-yl)amino)phenyl)acetamide] is < 1000 nM; for `C[C@@H](O)Cc1ccc(Nc2nc(-c3cccc(Cl)c3)nc3c2CCC3)cc1` [Example 172, (R)-1-(4-((2-(3-Chlorophenyl)-6,7-dihydro-5H-cyclopenta[d]pyrimidin-4-yl)amino)phenyl)propan-2-ol] it is > 1000 nM.
